Columns and labels:
Experiment in all cases: relative viability (nuclei count vs DMSO), 5 days (fraction); higher = more cells survive
FG-4592 + Lapatinib = compound: Cc1nc(C(=O)NCC(=O)O)c(O)c2ccc(Oc3ccccc3)cc12 [FG-4592] + CS(=O)(=O)CCNCc1ccc(-c2ccc3ncnc(Nc4ccc(OCc5cccc(F)c5)c(Cl)c4)c3c2)o1 [Lapatinib] (partner 2 µM)
Method in brief: (§1)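 Lung cancer cell lines in 1536-well plates got either a single drug or a fixed anchor-drug dose together with five library-drug doses (not always all listed) in √10 steps, by pin tool, on the day after seeding. Nuclei were counted after 5 days, and relative viability is the treated-to-vehicle ratio of nuclei counts. Values are medians of duplicate plates.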

IU1-47 + Phenformin = compound: CC1=CC(=C(N1C2=CC=C(C=C2)Cl)C)C(=O)CN3CCCCC3 [IU1-47] + N=C(N)NC(=N)NCCc1ccccc1 [Phenformin] (partner 250 µM)
Method in brief: as §1

IU1-47 + Vorinostat = compound: CC1=CC(=C(N1C2=CC=C(C=C2)Cl)C)C(=O)CN3CCCCC3 [IU1-47] + O=C(CCCCCCC(=O)Nc1ccccc1)NO [Vorinostat] (partner 1 µM)
Method in brief: as §1

FG-4592 + Vorinostat = compound: Cc1nc(C(=O)NCC(=O)O)c(O)c2ccc(Oc3ccccc3)cc12 [FG-4592] + O=C(CCCCCCC(=O)Nc1ccccc1)NO [Vorinostat] (partner 1 µM)
Method in brief: as §1

Cell Line | relative viability (FG-4592 + Lapatinib; first compound 0.08 µM) | relative viability (FG-4592 + Lapatinib; first compound 0.253 µM) | relative viability (FG-4592 + Lapatinib; first compound 0.8 µM) | relative viability (FG-4592 + Lapatinib; first compound 2.53 µM) | relative viability (FG-4592 + Lapatinib; first compound 8 µM) | relative viability (IU1-47 + Phenformin; first compound 0.08 µM) | relative viability (IU1-47 + Phenformin; first compound 0.253 µM) | relative viability (IU1-47 + Phenformin; first compound 0.8 µM) | relative viability (IU1-47 + Phenformin; first compound 2.53 µM) | relative viability (IU1-47 + Phenformin; first compound 8 µM) | relative viability (IU1-47 + Vorinostat; first compound 0.08 µM) | relative viability (IU1-47 + Vorinostat; first compound 0.253 µM) | relative viability (IU1-47 + Vorinostat; first compound 0.8 µM) | relative viability (IU1-47 + Vorinostat; first compound 2.53 µM) | relative viability (IU1-47 + Vorinostat; first compound 8 µM) | relative viability (FG-4592 + Vorinostat; first compound 0.08 µM) | relative viability (FG-4592 + Vorinostat; first compound 0.253 µM) | relative viability (FG-4592 + Vorinostat; first compound 0.8 µM) | relative viability (FG-4592 + Vorinostat; first compound 2.53 µM) | relative viability (FG-4592 + Vorinostat; first compound 8 µM)
NCI-H1755 | 0.935 | 1.01 | 0.945 | 1.02 | 0.984 | 0.684 | 0.665 | 0.698 | 0.613 | 0.662 | 0.82 | 0.895 | 0.799 | 0.828 | 0.668 | 0.694 | 0.761 | 0.472 | 0.69 | 0.747
HCC-78 | 0.696 | 0.733 | 0.701 | 0.892 | 0.9 | 0.679 | 0.691 | 0.671 | 0.671 | 0.617 | 0.557 | 0.432 | 0.463 | 0.397 | 0.438 | 0.488 |  | 0.434 | 0.376 | 0.523
IA-LM | 0.675 | 0.78 | 0.66 | 0.711 | 0.567 |  |  |  |  |  | 0.951 | 1.13 | 1.11 | 0.444 | 1.06 | 0.826 | 0.83 | 0.814 | 0.943 | 1.04
NCI-H322M | 0.451 | 0.621 | 0.631 | 0.646 | 0.633 | 0.825 | 0.768 | 0.789 | 0.809 | 0.633 | 0.935 | 0.968 | 0.907 | 0.894 | 0.885 |  | 0.823 | 0.772 | 0.898 | 0.822
NCI-H3122 | 1.1 | 0.989 | 1.03 | 1.08 | 1.1 | 0.398 | 0.373 | 0.366 | 0.372 | 0.347 | 1.29 | 1.15 | 1.17 | 1.06 | 1.01 | 0.997 | 0.906 | 0.975 | 0.975 | 0.592
COR-L23 | 0.906 | 0.914 | 0.965 | 0.838 | 0.81 | 0.414 | 0.45 | 0.472 | 0.438 | 0.492 | 0.383 | 0.514 | 0.439 | 0.466 | 0.404 | 0.414 | 0.373 | 0.427 | 0.337 | 0.457
NCI-H2087 | 0.888 | 0.943 | 1.37 | 1.1 | 1.15 | 0.469 | 0.503 | 0.548 |  | 0.441 | 0.902 | 0.716 | 0.83 | 0.723 | 0.489 | 0.695 | 0.453 | 0.565 |  | 0.869
LC-2-ad | 0.913 | 0.915 | 0.94 | 0.904 | 1.05 | 0.616 | 0.607 | 0.577 | 0.558 | 0.57 | 0.736 | 0.736 | 0.71 |  | 0.715 | 0.715 | 0.645 | 0.782 | 0.637 | 0.683
NCI-H1915 | 0.956 | 0.933 | 0.931 | 0.943 | 1.04 | 0.373 | 0.354 | 0.342 |  | 0.332 | 0.541 | 0.572 | 0.533 | 0.371 | 0.509 | 0.452 | 0.489 | 0.469 | 0.442 | 0.468
NCI-H1793 | 0.592 | 0.468 |  | 0.646 | 0.62 | 0.419 | 0.259 | 0.475 |  | 0.352 | 0.628 |  | 0.77 | 0.64 | 0.686 |  | 0.677 |  | 0.638 | 0.678
NCI-H1792 | 0.859 | 0.785 | 0.908 | 0.86 | 0.849 | 0.302 | 0.249 | 0.197 | 0.174 | 0.183 |  |  |  |  |  |  |  |  |  | 
ChaGo-K-1 |  |  |  |  |  | 0.464 | 0.545 | 0.428 | 0.579 | 0.451 | 0.835 | 0.766 | 0.806 | 0.623 | 0.717 | 0.694 | 0.819 | 0.687 | 0.758 | 0.693
NCI-H522 |  |  |  |  |  | 0.577 | 0.595 | 0.708 | 0.585 | 0.647 | 0.95 | 0.903 | 0.884 | 0.695 | 0.851 | 0.962 | 0.794 |  | 0.724 | 0.89
NCI-H1299 | 0.969 | 0.941 | 0.981 | 0.954 | 0.988 |  |  |  |  |  |  |  |  |  |  |  |  |  |  | 
NCI-H1648 |  |  |  |  |  |  |  |  |  |  | 0.455 | 0.402 | 0.999 | 0.265 | 0.399 | 0.481 | 0.683 |  | 0.349 | 0.708
NCI-H2342 |  |  |  |  |  | 0.628 | 0.558 | 0.694 | 0.552 | 0.593 | 0.833 | 0.836 | 0.975 | 1.03 | 0.825 | 0.701 | 0.721 | 0.697 | 0.681 | 0.651
SW 900 |  |  |  |  |  | 0.628 | 0.539 | 0.444 | 0.532 | 0.661 | 0.361 |  | 0.616 | 0.603 | 0.428 |  | 0.388 |  | 0.548 | 0.469
A549 | 0.917 | 0.975 | 1.03 | 1.07 | 0.946 | 0.165 | 0.105 | 0.144 |  | 0.0832 |  |  |  |  |  |  |  |  |  | 
NCI-H1563 | 0.873 | 0.829 | 0.779 | 1.04 | 0.809 | 0.657 | 0.691 | 0.629 | 0.709 | 0.584 |  |  |  |  |  |  |  |  |  | 
LCLC-103H |  |  |  |  |  | 0.334 | 0.369 | 0.326 | 0.423 | 0.298 | 0.748 | 0.819 | 0.82 | 0.561 | 0.704 | 0.75 | 0.733 | 0.677 | 0.707 | 0.747
NCI-H441 |  |  |  |  |  | 0.994 | 0.978 | 0.787 | 0.887 | 0.787 | 0.947 | 0.884 | 0.764 | 0.813 | 0.595 | 0.692 | 0.809 | 0.855 | 0.694 | 0.696

— the supplement of paper PMC10307832
